# Results as given in patent publication US7329522B2, “Polyphosphate:AMP phosphotransferase” (Yamasa Corporation, priority 2002, dated 2008).
# Experiments:
# [1] = target: T1, PAP (polyphosphate:AMP phosphotransferase) (Acinetobacter johnsonii, UniProt Q83XD3); test: Substrate specificity of PAP: NDP or dNDP produced from NMP or dNMP, measured by HPLC; type: biochemical; settings: relative to phosphorylation of AMP = 100%; 5 mM NMP or dNMP, polyphosphate 10 mM, 100 mM MgCl2, pH 8.0, 37° C., 10 minutes
# T1 construct: the PAP gene codes for the polypeptide (molecular weight: 55.8 kd) comprising 475 amino acids; made in house; host or cells: E. coli JM109 carrying plasmid pPAP2
# Experimental: To 50 mM Tris HCl buffer solution (pH 8.0) containing 100 mM MgCl2, polyphosphate (10 mM calculated in terms of inorganic phosphate), and 5 mM of various NMP or dNMP was added PAP at various concentration, and the solution was incubate at 37° C. for 10 minutes. The reaction was terminated by heat treatment at 100° C. for 1 minute, and the solution after the reaction was subjected to HPLC to measure the amount of the NDP or the dNDP produced. The specific activity of each NMP or dNMP is shown in Table 1 as a relative value in relation to the specific activity of the PAP in the phosphorylation of the AMP, which is assumed 100%.
# [2] = system: PAP from Acinetobacter johnsonii; settings: PAP obtained from Acinetobacter johnsonii, reported as AMP-specific; cited from earlier work
# [3] = target: T1, PAP (polyphosphate:AMP phosphotransferase); test: Synthesis of NDP from NMP with PAP and polyphosphate, HPLC analysis; type: biochemical; settings: 10 mM NMP, polyphosphate 30 mM, PAP 16 units/ml, 37° C., 30 minutes
# [4] = Adenylate kinase activity measurement (ADP from AMP and ATP, HPLC); type: biochemical; settings: cell extract; 1 unit = 2 μmole ADP at 37° C. in 1 minute
# Experimental: The unit of the adenylate kinase activity is the one measured and calculated by the procedure as described below. Sample enzyme is added the 50 mM Tris HCl buffer solution (pH 7.8) containing 10 mM magnesium chloride, 10 mM AMP, and 10 mM ATP, and the solution is incubated at 37° C. to promote the reaction, and the reaction is terminated by a 1 minute heating at 100° C. Amount of the ADP in the reaction solution is measured by using HPLC, and the activity of producing 2 μmole of ADP at 37° C. in 1 minute is designated 1 unit.
# E. coli adenylate kinase was prepared by the procedure described in the document (Proc. Natl. Acad. Sci. USA, 97, 14168-14171 (2000)). However, the cell extract produced by ultrasonication was used for the enzyme solution, and the specific activity of the adenylate kinase in the enzyme solution was 12.5 units/mg protein.
# Optimal pH of PAP = type: biochemical; settings: 37° C., 10 minutes, 5 mM AMP, polyphosphate 10 mM, 100 mM magnesium chloride
# Experimental: The reaction was allowed to proceed in either 50 mM maleate or 50 mM Tris HCl buffer solution of various pH at 37° C. for 10 minutes in the presence of 100 mM magnesium chloride, polyphosphate (10 mM calculated in terms of inorganic phosphate), and 5 mM AMP to measure the amount of the ADP produced by HPLC.
# [5] = PAP activity measurement (ADP produced from AMP and polyphosphate, HPLC); type: biochemical; settings: partially purified by DEAE TOYOPEARL 650M; 1 unit = 1 μmole ADP at 37° C. in 1 minute
# Experimental: The “unit” used herein is the unit measured under the following conditions, and 1 unit corresponds to the activity of producing 1 μmole of ADP at 37° C. in 1 minute.
# Sample enzyme is added to 50 mM Tris HCl buffer solution (pH 7.8) containing 20 mM magnesium chloride, 10 mM AMP, and polyphosphate (30 mM calculated in terms of inorganic phosphate) and the reaction is allowed to proceed by incubating the temperature at 37° C., and the reaction is thereafter terminated by a heat treatment at 100° C. for 1 minute, and amount of ADP in the reaction solution is measured by high performance liquid chromatography (HPLC).
# It is to be noted that this productivity corresponds to about 150 times the productivity of the Acinetobacter Johnsonii. PAP was partially purified by fractionating the extract by ion exchange chromatography using DEAE TOYOPEARL 650M (TOSO) (eluent: 50 mM Tris HCl (pH 7.8), concentration gradient of 0 to 0.5M NaCl), and the collected fraction was used for the enzyme sample. The specific activity of the PAP in the collected fraction was 80.5 units/mg protein.
# [6] = Thermal stability of PAP (residual activity); type: physicochemical; settings: 10 minutes, pH 8.0, in the presence of the polyphosphate
# Experimental: PAP was incubated for 10 minutes in 50 mM Tris HCl buffer solution (pH 8.0) containing 100 mM magnesium chloride in the presence or absence of polyphosphate (10 mM calculated in terms of inorganic phosphate) in the bath at various temperatures to measure the residual activity by the procedure as described above.
# [7] = pH stability of PAP (residual activity); type: physicochemical; settings: pH in the range of 7 to 9; activity at pH 8 = 100%; 37° C., 10 minutes, 100 mM magnesium chloride
# Experimental: PAP was incubated in either 50 mM maleate or 50 mM Tris HCl buffer solution of various pH at 37° C. for 10 minutes in the presence of 100 mM magnesium chloride to measure the residual activity. The residual activity was measured by allowing the reaction to take place at 37° C. for 10 minutes in the presence of 50 mM Tris buffer solution (pH 8.0), 100 mM magnesium chloride, 5 mM AMP, and polyphosphate (10 mM calculated in terms of inorganic phosphate), and measuring the resulting ADP by HPLC.
# [8] = Galactokinase activity measurement (galactose-1-phosphate produced, sugar analyzer); type: biochemical; settings: partially purified; 1 unit = 1 μmole galactose-1-phosphate at 37° C. in 1 minute
# Experimental: E. coli strain JM109 having the plasmid pDR540 containing E. coli galactokinase gene (Gene, 20, 231(1982), obtained from Pharmacia) was inoculated in 2xYT medium containing 100 μg/ml ampicillin, and the E. coli was cultivated at 37° C. with shaking. When the cell density reached 4×10^8/ml, IPTG was added to the culture medium to a final concentration of 1 mM, and the incubation was continued at 30° C. for another 5 hours. After completion of the cultivation, the cells were collected by centrifugation and suspended in 30 ml buffer solution (50 mM Tris HCl (pH 7.8), 1 mM EDTA). The cells were lyzed by ultrasonication, and bacterial residue was removed by further centrifugation. The solution collected was subjected to ion exchange chromatography using DEAE Toyopearl 650M (Toso) (eluent: 50 mM Tris HCl (pH 7.8), concentration gradient of 0 to 0.5M NaCl) for fractionation and partial purification of the galactokinase. The thus recovered fraction was used for the enzyme solution of galactokinase. […]
# The unit of the glactokinase activity was the one measured and calculated by the procedure as described below. […] Amount of the galactose-1-phosphate in the reaction solution was measured by using a sugar analyzer (Dionex), and the activity of producing 1 μmole of galactose-1-phosphate at 37° C. in 1 minute was designated 1 unit.
Molecule,Specific activity (relative value) [1] [%],NDP generated [3],further results
Nc1nc2c(ncn2[C@@H]2O[C@H](COP(=O)(O)O)[C@@H](O)[C@H]2O)c(=O)[nH]1 [GMP],10,7.16 mM GDP,phosphate-transfer by conventional PAP [2]: some phosphate-transfer
Nc1ncnc2c1ncn2[C@H]1C[C@H](O)[C@@H](COP(=O)(O)O)O1 [dAMP],18,–,–
Nc1ccn([C@H]2C[C@H](O)[C@@H](COP(=O)(O)O)O2)c(=O)n1 [dCMP],0.008,–,–
"Nc1ncnc2c1ncn2[C@@H]1O[C@H](COP(=O)(O)O)[C@@H](O)[C@H]1O [AMP, adenosine 5′-monophosphate]",100,6.76 mM ADP,–
Nc1ccn([C@@H]2O[C@H](COP(=O)(O)O)[C@@H](O)[C@H]2O)c(=O)n1 [CMP],0.09,0.98 mM CDP,phosphate-transfer by conventional PAP [2]: no phosphotransfer at all
"adenylate kinase: E. coli adenylate kinase, cell extract used as enzyme solution",–,–,specific activity of the adenylate kinase in the enzyme solution [4]: 12.5 units/mg protein
Cc1cn([C@H]2C[C@H](O)[C@@H](COP(=O)(O)O)O2)c(=O)[nH]c1=O [TMP],0.012,–,–
O=c1ccn([C@@H]2O[C@H](COP(=O)(O)O)[C@@H](O)[C@H]2O)c(=O)[nH]1 [UMP],0.13,0.85 mM UDP,phosphate-transfer by conventional PAP [2]: no phosphotransfer at all
Nc1nc2c(ncn2[C@H]2C[C@H](O)[C@@H](COP(=O)(O)O)O2)c(=O)[nH]1 [dGMP],2.6,–,–
"polyphosphate:AMP phosphotransferase (protein, listed as Acinetobacter jobnsonii) MDTETIASAVLNEEQLSLDLIEAQYALMNTRDQSNAKSLVILVSGIELAGKGEAVKQLREWVDPRFLYVKADPPHLFNLKQPFWQPYTRFVPAEGQIMVWFGNWYGDLLATAMHASKPLDDTLFDEYVSNMRAFEQDLKNNNVDVLKVWFDLSWKSLQKRLDDMDPSEVHWHKLHGLDWRNKKQYDTLQKLRTRFTDDWQIIDGEDEDLRNHNFAQAILTALRHCPEHEKKAALKWQQAPIPDILTQFEVPQAEDANYKSELKKLTKQVADAMRCDDRKVVIAFEGMDAAGKGGAIKRIVKKLDPREYEIHTIAAPEKYELRRPYLWRFWSKLQSDDITIFDRTWYGRVLVERVEGFATEVEWQRAYAEINRFEKNLSSSQTVLIKFWLAIDKDEQAARFKARESTPHKRFKITEEDWRNRDKWDDYLKAAADMFAHTDTSYAPWYIISTNDKQQARIEVLRAILKQLKADRDTD",–,–,optimal pH (Optimal pH of PAP): approximately 8.5; specific activity of the PAP in the collected fraction [5]: 80.5 units/mg protein; thermal stability: stable up to [6]: approximately 50 °C; enzymatic activity (residual) after incubation at various pH [7]: ≥ 80%
"galactokinase: E. coli galactokinase, partially purified enzyme solution (protein, UniProt P0A6T3 2-382, looked up) Galactokinase: SLKEKTQSLFANAFGYPATHTIQAPGRVNLIGEHTDYNDGFVLPCAIDYQTVISCAPRDDRKVRVMAADYENQLDEFSLDAPIVAHENYQWANYVRGVVKHLQLRNNSFGGVDMVISGNVPQGAGLSSSASLEVAVGTVLQQLYHLPLDGAQIALNGQEAENQFVGCNCGIMDQLISALGKKDHALLIDCRSLGTKAVSMPKGVAVVIINSNFKRTLVGSEYNTRREQCETGARFFQQPALRDVTIEEFNAVAHELDPIVAKRVRHILTENARTVEAASALEQGDLKRMGELMAESHASMRDDFEITVPQIDTLVEIVKAVIGDKGGVRMTGGGFGGCIVALIPEELVPAVQQAVAEQYEAKTGIKETFYVCKPSQGAGQC",–,–,specific activity of the galactokinase in the enzyme solution [8]: 6.5 units/mg protein
